From US11446300B2 (Alexion Pharmaceuticals, Inc., priority 2015, dated 2022)
Like-named read-outs stand apart in the source and are kept apart here. Peptide text beside a SMILES is read from it. * marks the point of attachment. Cbz = O=C(OCc1ccccc1)*; CH2F = FC*

Tests used:
[1] = tested on: U2932; assay: Combination synergy, Cell Titer Glo, 72 hours; type: cell-based; settings: Homo sapiens
Protocol: (§1) Synergistic anti-tumor activity in DLBCL cell lines was determined using the Cell Titer Glo assay. Briefly, 5,000 cells were plated in 96 well plates in complete tissue culture media. […] Cells were incubated with or without drug for 72 hours in a 37° C. tissue culture incubator prior to evaluation by CellTiter Glo as per the manufacturer protocol (Promega). Synergy was evaluated by calculating combination index score, as described elsewhere (Jacquement et al, Molecular Cancer 2012) following IC50 determination using Prism software. The compounds are commercially available or are made according to synthetic methods known to those skilled in the art.

[2] = tested on: TOLEDO; assay: Combination synergy, Cell Titer Glo, 72 hours; type: cell-based; settings: Homo sapiens
Protocol: as §1

[3] = tested on: CLL primary cells; assay: CLL cell viability with IL-4/CD40L, PI/Annexin V staining; type: cell-based, human
Protocol: Viability was assessed using (A) PI/Annexin V staining by flow cytometry. A representative plot is shown or (B) summarized (n=9) showing % of control (PI/Annexin V negative cells). […] Points below the diagonal line represent synergistic interactions, above the line are additive.
Values above the diagonal line represent additive interaction and those under the line are synergistic.

[4] = tested on: DHL6; assay: Combination synergy, Cell Titer Glo, 72 hours; type: cell-based
Protocol: as §1
as §1, with “calculating a” for “calculating”

[5] = tested on: DHL4 (SU-DHL4); assay: Combination synergy, Cell Titer Glo, 72 hours; type: cell-based; settings: Homo sapiens
Protocol: as §1
as §1, with “calculating a” for “calculating”

[6] = tested on: Lyl (OCI-Lyl); assay: Combination synergy, Cell Titer Glo, 72 hours; type: cell-based
Protocol: as §1
as §1, with “calculating a” for “calculating”

[7] = tested on: DHL10; assay: Combination synergy, Cell Titer Glo, 72 hours; type: cell-based
Protocol: as §1
as §1, with “calculating a” for “calculating”

[8] = tested on: VAL; assay: Combination synergy, Cell Titer Glo, 72 hours; type: cell-based
Protocol: as §1
as §1, with “calculating a” for “calculating”

[9] = tested on: DHL6; assay: DLBCL cell line viability, CellTiter Glo, ten-point curve; type: cell-based; settings: read-out: IC50 of Kinase Inhibitor in Cell Titer Glo Assay
Text: (§2) Each IC50 value is an average of at least four replicate experiments.

[10] = tested on: LY18; assay: as above; type: cell-based; settings: read-out: IC50 of Kinase Inhibitor in Cell Titer Glo Assay
Text: as §2

[11] = tested on: DLCL2; assay: as above; type: cell-based; settings: read-out: IC50 of Kinase Inhibitor in Cell Titer Glo Assay
Text: as §2

[12] = tested on: LY7; assay: as above; type: cell-based; settings: read-out: IC50 of Kinase Inhibitor in Cell Titer Glo Assay
Text: as §2

[13] = tested on: DHL5; assay: as above; type: cell-based; settings: read-out: IC50 of Kinase Inhibitor in Cell Titer Glo Assay
Text: as §2

[14] = tested on: DB; assay: as above; type: cell-based; settings: Homo sapiens; DB cell line; read-out: IC50 of Kinase Inhibitor in Cell Titer Glo Assay
Text: as §2

[15] = tested on: DHL10; assay: as above; type: cell-based; settings: read-out: IC50 of Kinase Inhibitor in Cell Titer Glo Assay
Text: as §2

[16] = tested on: LY1; assay: as above; type: cell-based; settings: read-out: IC50 of Kinase Inhibitor in Cell Titer Glo Assay
Text: as §2

[17] = tested on: VAL; assay: as above; type: cell-based; settings: read-out: IC50 of Kinase Inhibitor in Cell Titer Glo Assay
Text: as §2

[18] = tested on: DHL8; assay: as above; type: cell-based; settings: read-out: IC50 of Kinase Inhibitor in Cell Titer Glo Assay
Text: as §2

[19] = tested on: U2932; assay: as above; type: cell-based; settings: Homo sapiens, read-out: IC50 of Kinase Inhibitor in Cell Titer Glo Assay
Text: as §2

[20] = tested on: LY10 (OCI-LY10); assay: as above; type: cell-based; settings: LY10 cell line; read-out: IC50 of Kinase Inhibitor in Cell Titer Glo Assay
Text: as §2

[21] = tested on: TOLEDO; assay: as above; type: cell-based; settings: Homo sapiens; TOLEDO cell line; read-out: IC50 of Kinase Inhibitor in Cell Titer Glo Assay
Text: as §2

[22] = tested on: DHL4; assay: as above; type: cell-based; settings: read-out: IC50 of Kinase Inhibitor in Cell Titer Glo Assay
Text: as §2

[23] = tested on: RCK8; assay: as above; type: cell-based; settings: Homo sapiens; RCK8 cell line; read-out: IC50 of Kinase Inhibitor in Cell Titer Glo Assay
Text: as §2

[24] = tested on: WT BTK-transfected TMD8 cells; assay: Cell count and viability of transfected TMD8 cells; type: cell-based; settings: 250 nM; 7 days
Text: (§3) Cell transfection, cell count and viability assay: TMD8 cells were transfected with constructs of WT BTK or BTK^C481S mutants using kit V, Program U-13 on Amaxa Nucleofector, according to the manufacturer's protocols (Amaxa, Cologne, Germany). After transfection, the cells were co-cultured with NKTert cells in a 24-well plate for 24 hrs for recovery.

[25] = tested on: OCI-Ly18; assay: Combination synergy, Cell Titer Glo, 72 hours; type: cell-based; settings: Homo sapiens, OCI-Ly18, 72 h
Protocol: as §1, with “calculating a” for “calculating”

[26] = tested on: BTK^C481S-transfected TMD8 cells; assay: Cell count and viability of transfected TMD8 cells; type: cell-based; settings: 250 nM; 7 days
Text: as §3

[27] = tested on: primary CLL cells; assay: Apoptosis in primary CLL samples, propidium iodide/Annexin V staining and PARP cleavage; type: cell-based, human; settings: co-treatment with cerdulatinib

| IC50 [20] [µM] | SMILES | IC50 [4] [µM] | IC50 ([5]; SU-DHL-4, 72 h, read-out: IC50) [µM] | IC50 [6] [µM] | IC50 [7] [µM] | IC50 [8] [µM] | IC50 [9] [µM] | IC50 [10] [µM] | IC50 [11] [µM] | IC50 [12] [µM] | IC50 [13] [µM] | IC50 [14] [µM] | IC50 [15] [µM] | IC50 [16] [µM] | IC50 [17] [µM] | IC50 [18] [µM] | IC50 [19] [µM] | IC50 [21] [µM] | IC50 [22] [µM] | IC50 [23] [µM] | other results |
| --- | --- | --- | --- | --- | --- | --- | --- | --- | --- | --- | --- | --- | --- | --- | --- | --- | --- | --- | --- | --- | --- |
|  | CC1(C)CCC(CN2CCN(c3ccc(C(=O)NS(=O)(=O)c4ccc(NCC5CCOCC5)c([N+](=O)[O-])c4)c(Oc4cnc5[nH]ccc5c4)c3)CC2)=C(c2ccc(Cl)cc2)C1 [ABT-199, 4-(4-{[2-(4-chlorophenyl)-4,4-dimethylcyclohex-1-en-1-yl]methyl}piperazin-1-yl)-N-({3-nitro-4-[(tetrahydro-2H-pyran-4-ylmethyl)amino]phenyl}-sulfonyl)-2-(1H-pyrrolo[2,3-b]pyridin-5-yloxy)benzamide, reference compound] | 0.023 | 1.63 | 0.75 | 3.7 | 4.3 |  |  |  |  |  |  |  |  |  |  |  |  |  |  | IC50 ([1]; U2932, 72 h, read-out: IC50): 0.49 µM; IC50 ([1]; U2932 cell line, read-out: IC50 value): 0.49 µM; IC50 [2]: 0.23 µM; CLL cell viability ([3]; IL-4/CD40L for 6 hours, then drug for 24 hours, n=9): protected CLL cells against ABT-199 induced apoptosis; CLL cell viability ([3]; absence of IL-4/CD40L, 24 hours): significantly reduced CLL cell viability; IC50 ([5]; SU-DHL-4, SU-DHL4 cell line, read-out: IC50 value): 1.63 µM |
| 0.04 | COc1cccc2c1C(=O)c1c(O)c3c(c(O)c1C2=O)C[C@@](O)(C(=O)CO)C[C@@H]3O[C@H]1C[C@H](N)[C@H](O)[C@H](C)O1 [Doxo, Doxorubicin] |  |  |  |  |  | 0.14 | 0.06 | 0.18 | 0.14 | 0.03 | 0.37 | 0.3 | 0.19 | 0.22 | 0.15 | 0.35 | 0.44 | 0.1 | 0.2 |  |
| 5.7 | C[C@H](Nc1ncnc2nc[nH]c12)c1cc2cccc(Cl)c2c(=O)n1-c1ccccc1 [IPI-145] |  |  |  |  |  | 0.002 | 0.96 | 5 | 25 | 0.33 | ≥ 50 | 4.1 | 1.3 | 21 | 45 | 27 | 18 | 3.7 | ≥ 50 |  |
|  | C=CC(=O)N1CCC[C@@H](n2nc(-c3ccc(Oc4ccccc4)cc3)c3c(N)ncnc32)C1 [Ibrutinib, 1-[(3R)-3-[4-Amino-3-(4-phenoxyphenyl)-1H-pyrazolo[3,4-d]pyrimidin-1-yl]piperidin-1-yl]prop-2-en-1-one, reference compound] | 0.31 | 3.1 | 0.75 | 1.89 | 4.56 |  |  |  |  |  |  |  |  |  |  |  |  |  |  | cell growth [24]: similarly inhibited; IC50 [25]: 1.24 µM; cell growth [26]: less sensitive |
| 12 | CC[C@H](Nc1ncnc2[nH]cnc12)c1nc2cccc(F)c2c(=O)n1-c1ccccc1 [Idelalisib] |  |  |  |  |  | 0.03 | 3.8 | 15 | 13 | 1.3 | 42 | 12 | 4.9 | 29 | 49 | 40 | ≥ 50 | 12 | ≥ 50 |  |
|  | CC(NC(=O)C(NC(=O)OCc1ccccc1)C(C)C)C(=O)NC(CC(=O)O)C(=O)CF (stereo not drawn) [ZVAD, reference compound] (Cbz-Val-Ala-Asp-CH2F; configuration not given here) |  |  |  |  |  |  |  |  |  |  |  |  |  |  |  |  |  |  |  | cerdulatinib induced apoptosis on co-treatment [27]: inhibited |
